Data published in ChEMBL document CHEMBL2346657, “Synthesis of novel 2-amino-4-(5'-substituted 2'-phenyl-1H-indol-3'-yl)-6-aryl-4H-pyran-3-carbonitrile derivatives as antimicrobial and antioxidant agents” (2013).
Calls of active or inactive are those of the source. How the calls were made is not given here.

Columns and labels:
Format in all cases: functional
Aspergillus flavus [1] = test: Antimicrobial activity against Aspergillus flavus MTCC 1973 at 750 ug/ml after 72 hrs by cup plate method; conditions: MTCC 1973, 72 h, read-out: IZ
Aspergillus oryzae [2] = test: Antimicrobial activity against Aspergillus oryzae MTCC 3567 at 750 ug/ml after 72 hrs by cup plate method; conditions: MTCC 3567, 72 h, read-out: IZ
Klebsiella pneumoniae [3] = test: Antimicrobial activity against Klebsiella pneumoniae NCTC 13368 at 1000 ug/ml after 24 hrs by cup plate method; conditions: NCTC 13368, 24 h, read-out: IZ
Pseudomonas aeruginosa [4] = test: Antimicrobial activity against Pseudomonas aeruginosa MTCC 1688 at 1000 ug/ml after 24 hrs by cup plate method; conditions: MTCC 1688, 24 h, read-out: IZ
Aspergillus oryzae [5] = test: Antimicrobial activity against Aspergillus oryzae MTCC 3567 at 1000 ug/ml after 72 hrs by cup plate method; conditions: MTCC 3567, 72 h, read-out: IZ
Escherichia coli [6] = test: Antimicrobial activity against Escherichia coli MTCC 723 at 750 ug/ml after 24 hrs by cup plate method; conditions: MTCC 723, 24 h, read-out: IZ
Klebsiella pneumoniae [7] = test: Antimicrobial activity against Klebsiella pneumoniae NCTC 13368 at 500 ug/ml after 24 hrs by cup plate method; conditions: NCTC 13368, 24 h, read-out: IZ
Aspergillus flavus [8] = test: Antimicrobial activity against Aspergillus flavus MTCC 1973 at 1000 ug/ml after 72 hrs by cup plate method; conditions: MTCC 1973, 72 h, read-out: IZ
Staphylococcus aureus [9] = test: Antimicrobial activity against Staphylococcus aureus ATCC 29513 at 1000 ug/ml after 24 hrs by cup plate method; conditions: ATCC 29513, 24 h, read-out: IZ
Aspergillus niger [10] = test: Antimicrobial activity against Aspergillus niger MTCC 281 at 1000 ug/ml after 72 hrs by cup plate method; conditions: MTCC 281, 72 h, read-out: IZ
Aspergillus flavus [11] = test: Antimicrobial activity against Aspergillus flavus MTCC 1973 at 500 ug/ml after 72 hrs by cup plate method; conditions: MTCC 1973, 72 h, read-out: IZ
Aspergillus terreus [12] = test: Antimicrobial activity against Aspergillus terreus MTCC 1782 at 500 ug/ml after 72 hrs by cup plate method; conditions: MTCC 1782, 72 h, read-out: IZ
Aspergillus oryzae [13] = test: Antimicrobial activity against Aspergillus oryzae MTCC 3567 at 500 ug/ml after 72 hrs by cup plate method; conditions: MTCC 3567, 72 h, read-out: IZ
Aspergillus terreus [14] = test: Antimicrobial activity against Aspergillus terreus MTCC 1782 at 750 ug/ml after 72 hrs by cup plate method; conditions: MTCC 1782, 72 h, read-out: IZ
Aspergillus niger [15] = test: Antimicrobial activity against Aspergillus niger MTCC 281 at 750 ug/ml after 72 hrs by cup plate method; conditions: MTCC 281, 72 h, read-out: IZ
Aspergillus terreus [16] = test: Antimicrobial activity against Aspergillus terreus MTCC 1782 at 1000 ug/ml after 72 hrs by cup plate method; conditions: MTCC 1782, 72 h, read-out: IZ
Pseudomonas aeruginosa [17] = test: Antimicrobial activity against Pseudomonas aeruginosa MTCC 1688 at 750 ug/ml after 24 hrs by cup plate method; conditions: MTCC 1688, 24 h, read-out: IZ
Escherichia coli [18] = test: Antimicrobial activity against Escherichia coli MTCC 723 at 500 ug/ml after 24 hrs by cup plate method; conditions: MTCC 723, 24 h, read-out: IZ
Staphylococcus aureus [19] = test: Antimicrobial activity against Staphylococcus aureus ATCC 29513 at 500 ug/ml after 24 hrs by cup plate method; conditions: ATCC 29513, 24 h, read-out: IZ
Klebsiella pneumoniae [20] = test: Antimicrobial activity against Klebsiella pneumoniae NCTC 13368 at 750 ug/ml after 24 hrs by cup plate method; conditions: NCTC 13368, 24 h, read-out: IZ
[21] = Antioxidant activity assessed as metal chelating activity by measuring inhibition of ferrozine-Fe2+ complex formation at 25 to 100 ug/ml
Aspergillus niger [22] = test: Antimicrobial activity against Aspergillus niger MTCC 281 at 500 ug/ml after 72 hrs by cup plate method; conditions: MTCC 281, 72 h, read-out: IZ
Escherichia coli [23] = test: Antimicrobial activity against Escherichia coli MTCC 723 at 1000 ug/ml after 24 hrs by cup plate method; conditions: MTCC 723, 24 h, read-out: IZ
Staphylococcus aureus [24] = test: Antimicrobial activity against Staphylococcus aureus ATCC 29513 at 750 ug/ml after 24 hrs by cup plate method; conditions: ATCC 29513, 24 h, read-out: IZ
Pseudomonas aeruginosa [25] = test: Antimicrobial activity against Pseudomonas aeruginosa MTCC 1688 at 500 ug/ml after 24 hrs by cup plate method; conditions: MTCC 1688, 24 h, read-out: IZ

Row | SMILES | zone of inhibition at 750 µg/mL (Aspergillus flavus [1]) [mm] | zone of inhibition at 750 µg/mL (Aspergillus oryzae [2]) [mm] | zone of inhibition at 1000 µg/mL (Klebsiella pneumoniae [3]) [mm] | zone of inhibition at 1000 µg/mL (Pseudomonas aeruginosa [4]) [mm] | zone of inhibition at 1000 µg/mL (Aspergillus oryzae [5]) [mm] | zone of inhibition at 750 µg/mL (Escherichia coli [6]) [mm] | zone of inhibition at 500 µg/mL (Klebsiella pneumoniae [7]) [mm] | zone of inhibition at 1000 µg/mL (Aspergillus flavus [8]) [mm] | zone of inhibition at 1000 µg/mL (Staphylococcus aureus [9]) [mm] | zone of inhibition at 1000 µg/mL (Aspergillus niger [10]) [mm] | zone of inhibition at 500 µg/mL (Aspergillus flavus [11]) [mm] | zone of inhibition at 500 µg/mL (Aspergillus terreus [12]) [mm] | zone of inhibition at 500 µg/mL (Aspergillus oryzae [13]) [mm] | zone of inhibition at 750 µg/mL (Aspergillus terreus [14]) [mm] | zone of inhibition at 750 µg/mL (Aspergillus niger [15]) [mm] | zone of inhibition at 1000 µg/mL (Aspergillus terreus [16]) [mm] | zone of inhibition at 750 µg/mL (Pseudomonas aeruginosa [17]) [mm] | zone of inhibition at 500 µg/mL (Escherichia coli [18]) [mm] | zone of inhibition at 500 µg/mL (Staphylococcus aureus [19]) [mm] | zone of inhibition at 750 µg/mL (Klebsiella pneumoniae [20]) [mm] | also measured
1 | Cc1ccc(C2=CC(c3c(-c4ccccc4)[nH]c4ccc(C)cc34)c3c(N)nc(=O)[nH]c3O2)cc1 (stereo not given) | 2 | 0 | 10 | 10 | 0 | 13 | 10 | 2 | 2 | 10 | 2 | 9 | 0 | 9 | 10 | 9 | 10 | 13 | 8 | 10 | Activity [21]: Active; zone of inhibition at 500 µg/mL (Aspergillus niger [22]): 10 mm; zone of inhibition at 1000 µg/mL (Escherichia coli [23]): 14 mm; zone of inhibition at 750 µg/mL (Staphylococcus aureus [24]): 5 mm; zone of inhibition at 500 µg/mL (Pseudomonas aeruginosa [25]): 10 mm
2 | Nc1nc(=O)[nH]c2c1C(c1c(-c3ccccc3)[nH]c3ccccc13)C=C(c1ccc(Cl)cc1)O2 (stereo not given) | 12 | 5 | 8 | 13 | 3 | 13 | 11 | 12 | 14 | 5 | 12 | 6 | 6 | 4 | 5 | 4 | 12 | 13 | 14 | 10 | Activity [21]: Active; zone of inhibition at 500 µg/mL (Aspergillus niger [22]): 5 mm; zone of inhibition at 1000 µg/mL (Escherichia coli [23]): 14 mm; zone of inhibition at 750 µg/mL (Staphylococcus aureus [24]): 14 mm; zone of inhibition at 500 µg/mL (Pseudomonas aeruginosa [25]): 12 mm
3 | N#CC1=C(N)OC(c2ccccc2)=CC1c1c(-c2ccccc2)[nH]c2ccc(Cl)cc12 (stereo not given) | 3 | 3 | 10 | 13 | 3 | 10 | 10 | 3 | 9 | 10 | 3 | 9 | 8 | 8 | 9 | 8 | 12 | 10 | 10 | 10 | Activity [21]: Active; zone of inhibition at 500 µg/mL (Aspergillus niger [22]): 8 mm; zone of inhibition at 1000 µg/mL (Escherichia coli [23]): 10 mm; zone of inhibition at 750 µg/mL (Staphylococcus aureus [24]): 9 mm; zone of inhibition at 500 µg/mL (Pseudomonas aeruginosa [25]): 12 mm
4 | N#Cc1c(N)c2c(N)c3c(nc2oc1=O)OC(c1ccc(Cl)cc1)=CC3c1c(-c2ccccc2)[nH]c2ccccc12 (stereo not given) | 0 | 13 | 13 | 9 | 13 | 3 | 13 | 8 | 12 | 5 | 0 | 10 | 12 | 10 | 5 | 11 | 9 | 3 | 12 | 13 | Activity [21]: Active; zone of inhibition at 500 µg/mL (Aspergillus niger [22]): 7 mm; zone of inhibition at 1000 µg/mL (Escherichia coli [23]): 12 mm; zone of inhibition at 750 µg/mL (Staphylococcus aureus [24]): 11 mm; zone of inhibition at 500 µg/mL (Pseudomonas aeruginosa [25]): 10 mm
5 | Cc1ccc(C2=CC(c3c(-c4ccccc4)[nH]c4ccc(Cl)cc34)c3c(N)nc(=O)[nH]c3O2)cc1 (stereo not given) | 12 | 13 | 8 | 8 | 13 | 8 | 8 | 13 | 0 | 10 | 12 | 8 | 12 | 8 | 10 | 8 | 9 | 8 | 0 | 8 | Activity [21]: Active; zone of inhibition at 500 µg/mL (Aspergillus niger [22]): 10 mm; zone of inhibition at 1000 µg/mL (Escherichia coli [23]): 10 mm; zone of inhibition at 750 µg/mL (Staphylococcus aureus [24]): 0 mm; zone of inhibition at 500 µg/mL (Pseudomonas aeruginosa [25]): 10 mm
6 | Cc1ccc2[nH]c(-c3ccccc3)c(C3C=C(c4ccccc4)OC(N)=C3C#N)c2c1 (stereo not given) | 2 | 4 | 4 | 5 | 3 | 6 | 4 | 4 | 5 | 10 | 2 | 6 | 8 | 5 | 10 | 5 | 5 | 6 | 5 | 4 | Activity [21]: Active; zone of inhibition at 500 µg/mL (Aspergillus niger [22]): 9 mm; zone of inhibition at 1000 µg/mL (Escherichia coli [23]): 5 mm; zone of inhibition at 750 µg/mL (Staphylococcus aureus [24]): 5 mm; zone of inhibition at 500 µg/mL (Pseudomonas aeruginosa [25]): 6 mm
7 | Cc1ccc2[nH]c(-c3ccccc3)c(C3C=C(c4ccc(Cl)cc4)Oc4nc5oc(=O)c(C#N)c(N)c5c(N)c43)c2c1 (stereo not given) | 5 | 3 | 9 | 10 | 3 | 13 | 11 | 5 | 14 | 10 | 5 | 10 | 4 | 9 | 10 | 8 | 10 | 13 | 13 | 11 | Activity [21]: Active; zone of inhibition at 500 µg/mL (Aspergillus niger [22]): 10 mm; zone of inhibition at 1000 µg/mL (Escherichia coli [23]): 13 mm; zone of inhibition at 750 µg/mL (Staphylococcus aureus [24]): 13 mm; zone of inhibition at 500 µg/mL (Pseudomonas aeruginosa [25]): 10 mm
